Patent US20210030703A1, “USE OF CALORIC RESTRICTION MIMETICS FOR POTENTIATING CHEMO-IMMUNOTHERAPY FOR THE TREATMENT OF CANCERS” (INSERM (INSTITUT NATIONAL DE LA SANTÉ ET DE LA RECHERCHE …, priority 2018, published 2021)

What was measured:
[1] = tested on: MCA205 fibrosarcoma; assay: Subcutaneous MCA205 fibrosarcoma: tumor growth, cure and survival under chemo-immunotherapy; format: in vivo, C57B1/6 mice
[2] = tested on: MCA205 fibrosarcoma cells; assay: Rechallenge of cured mice with the same tumor (MCA205); format: in vivo, C57B1/6 mice; conditions: mice cured from MCA205 following MTX+ICIs+Spd treatment (FIG. 4G)
Experimental: (§1) In vivo experimentations. Tumor engraftment was performed through subcutaneous injection of 3×10^5 MCA205 fibrosarcoma tumor cells (in 100 μl PBS) in the right flank of the mice. […] Tumor size was carefully monitored up to 50 days post-MTX. Antitumor immunity induced by the treatment in cured mice was challenged by subcutaneously re-engrafting the same tumor (3×10^5 syngeneic MCA205 fibrosarcoma cells) in one flank while an antigenically unrelated cancer (3×10^5 syngeneic TC1 lung carcinoma cells) was implanted into the contralateral flank.

[3] = tested on: immune infiltrate of MCA205 tumors; assay: Immunophenotyping of the tumor immune infiltrate by flow cytometry; format: in vivo, C57B1/6 mice; conditions: data not shown
Experimental: 3 or 11 days post-chemotherapy (d3 or d11), mice were euthanized and the tumors were withdrawn and placed in gentleMACS C tubes (ref 130-096-334 from Miltenyi BiotecTM) previously filled with 1 ml of DMEM or RPMI medium, and immediately put on ice. […] Then, cells were stained with a live dead dye (ref L34959 from ThermoFisher ScientificTM) and an FCblock receptor targeting antibody. For the surface stainings, several anti-mouse fluorochrome-coupled antibodies were employed, that were for 1) myeloid cells “staining 1”: anti-CD45 APC-Fire750 (clone 30E-11, ref 130154 BiolegendTM), anti-Ly-6G PE (clone 1A8, ref 551461 BDTM), anti-Ly-6C FITC (clone AL-21, ref 553104, BDTM), anti-CD11b V450 (clone M1/70, ref 560455 BDTM), anti-CD11c PE-Cy7 (clone HL3, ref 558470 BDTM), anti-CD80 PerCP-Cy5.5 (16-10A1, ref 104722 BiolegendTM), and anti-MHC-II APC (clone M5/114.15.2, ref 107614 BiolegendTM) 2) T-cells “staining 2”: anti-CD3 APC (clone 17A2, ref 17-0032-82 eBioscienceTM), anti-CD8 PE (clone 53-6.7, ref 553032 BDTM), anti-CD4 PerCP-Cy5.5 (clone RM4-5, ref 45-0042-82 eBioscienceTM), anti-CD25 PE-Cy7 (clone PC61.5, ref 25-0251-82 InvitrogenTM), anti-ICOS BV421 (clone 7E.17G9, ref 564070 BDTM) and anti-PD-1 APC-Fire750 (clone 29F.1Al2, ref 135240 BiolegendTM) 3) PD-L1 expressing-cells “staining 4”: anti-CD45 AlexaFluor647 (clone 30E-11, ref 103-124 BiolegendTM), anti-PD-L1 BV421 (clone MIHS, ref 564716 BDTM) and anti-PD-L2 PE-Dazzle594 (clone TY25, ref 107215 BiolegendTM) 4) NKT cells “staining 5”: anti-CD3 FITC (clone 17A2, ref 11-00-32-82 eBioscienceTM) and anti-NK1.1 PerCP-Cy5.5 (clone PK136, ref 551114 BDTM). After the fixation and permeabilization of the cells (thanks to the Cytofix/Cytoperm kit, ref 554714 BDTM for stainings 1, 3, 4 and 5; and with the Foxp3/Transcription Factor kit, ref 00-5523-00 eBioscienceTM for staining 2), intracellular stainings were performed using for “staining 2”: anti-FoxP3 FITC (clone FJK-16s, ref 11-5773-82 eBioscienceTM) and for “staining 3”: anti-IFNg APC (clone XMG1.2, ref 505-810 BiolegendTM), anti-TNFα APC-Cy7 (clone MP6-XT22, ref 506344 BiolegendTM) and anti-IL-2 PE-Dazzle 594 (clone JES6-5H4, ref 503-840 BiolegendTM). Finally, cells were resuspended in FACS buffer and analyzed on a flow cytometer BD LSR II.

[4] = background, reference (9); cited from earlier work
[5] = tested on: TC1 lung carcinoma cells; assay: Rechallenge of cured mice with antigenically unrelated TC1 cells in the contralateral flank; format: in vivo, C57B1/6 mice; conditions: mice cured from MCA205 following MTX+ICIs+Spd treatment (FIG. 4G)
Experimental: as §1

[6] = tested on: whole MCA205 tumors; assay: RNA-seq analyses of whole tumors; format: in vivo, C57B1/6 mice; conditions: day 3 post-chemotherapy (MTX); data not shown
[7] = tested on: MCA205 fibrosarcoma; assay: Subcutaneous MCA205 fibrosarcoma: tumor growth, cure and survival under chemo-immunotherapy; format: in vivo, C57B1/6 mice; conditions: for Efficacy of MTX + ICIs (anti-PD-1 plus anti-CTLA-4) chemo-immunotherapy when the CRM is added: figure legends FIG. 2, 3, 4, 6
Experimental: Mouse strain and housing. Six- to 8-week-old wild-type female C57B1/6 mice were obtained from Envigo RMS SARL (Gannat, France). Animals were maintained in specific pathogen-free conditions in a temperature-controlled environment with 12 h light, 12 h dark cycles and received food and water ad libitum (unless precised otherwise). Animal experiments were in compliance with the EU Directive 63/2010 and approved by the Ethical Committee of the Cordeliers Research Center (Paris, France). All mouse experiments were randomized and blinded, and sample sizes were calculated to detect a statistically significant effect.
In vivo experimentations. Tumor engraftment was performed through subcutaneous injection of 3×10^5 MCA205 fibrosarcoma tumor cells (in 100 μl PBS) in the right flank of the mice. Tumor volume was monitored using a digital caliper and calculated according to the formula: volume=length×width×height/8×4/3 pi. When tumor reached 20 mm^3 on average, mice underwent fasting (48 hours without food but ad libitum access to water) or were given caloric restriction mimetics (CRMs) such as aspirin (Asp; 10 mg/kg i.p. in 200 μl phosphate buffered saline [PBS] five times per week), hydroxycitrate (HC; 5 mg/ml in drinking water daily) or spermidine (Spd; 50 mg/kg i.p. in 200 μl Earle's balanced salt solution three times per week), or were treated with mitoxantrone (MTX; 5.17 mg/kg i.p. in 200 μl PBS), or with the immune checkpoint inhibitors (ICIs) anti-PD-1 (10 mg/kg i.p. in 200 μl PBS) and/or anti-CTLA-4 (5 mg/kg i.p. in 200 μl PBS). Tumor size was carefully monitored up to 50 days post-MTX. Antitumor immunity induced by the treatment in cured mice was challenged by subcutaneously re-engrafting the same tumor (3×10^5 syngeneic MCA205 fibrosarcoma cells) in one flank while an antigenically unrelated cancer (3×10^5 syngeneic TC1 lung carcinoma cells) was implanted into the contralateral flank.
Statistical analyses. For tumor size comparison, Student unpaired t test or one-way ANOVA (Holm-Sidak) were performed. All statistical analyses were performed using GraphPad Prism version 6 for Windows (GraphPad Software, La Jolla, Calif., USA). Differences were considered significant when p value<0.05.

Work on O=C1[O][Pt]2([NH][C@@H]3CCCC[C@H]3[NH]2)[O]C1=O [OXA, [(1R,2R.)-cyclohexane-1,2-diamine](ethanedioato-O,O′)platinum(II)] yielded a Cure rate ([1]; OXA+PD-1 blockade) of 40%.
In the case of NCCCCNCCCN [spermidine, H2N—(CH2)3-NH(CH2)4-NH2], the Cure rate ([1]; CRM added to OXA+PD-1 blockade) is reported as 70%, the Cured mice ([1]; CRM added to OXA+PD-1 blockade) is reported as 7 out of 10 and the “Efficacy of OXA and anti-PD-1 combination when the CRM is added” value ([1]; figure legend FIG. 7) is reported as “further enhanced”. For the same molecule, the “Outgrowth of reinjected MCA205 cancer cells” value [2] was “did not led to the outgrowth”, the “Increase in the density of total CD3+ and CD8+ T cell infiltrate” value ([3]; combined with MTX) was “neither HC nor spermidine” and the Myeloid infiltrate ([3]; day 3 post-chemotherapy (MTX)) was “no major increments”. For the same molecule, the “Macrophage subpopulation with an M1 phenotype (Ly6G-F4/80+CD11c-CD11b+CD38+)” value ([3]; day 11 post-MTX) was “expansion”, the “Efficacy of anticancer chemotherapy with immunogenic cell death (ICD) inducers” value (from here on “Efficacy of anticancer chemotherapy”) [4] was “able to improve the efficacy” and the “Tumor formation by TC1 cancer cells injected into the opposite flank” value [5] was “yielded tumors”. The “Evidence of local immunostimulation” value [6] was “failed to yield convincing evidence”, the Tumor-free mice ([7]; MTX pre-treatment associated with the CRM, then CTLA-4/PD-1-blocking antibodies (FIG. 6)) was 8 out of 10 and the “Efficacy of MTX + ICIs (anti-PD-1 plus anti-CTLA-4) chemo-immunotherapy when the CRM is added” value [7] was “significantly improves tumor outcome”. For the same molecule, the “Efficacy of MTX + ICIs (anti-PD-1 plus anti-CTLA-4) chemo-immunotherapy when the CRM is added” value ([7]; listed as Spd) was “further enhanced”, the “Response to CTLA-4/PD-1-blockade” value ([7]; pretreated with the CRM alone (without MTX), data not shown) was “did not respond” and the “Cure of established tumor” value ([7]; spermidine i.p. 3 times per week + MTX chemotherapy + dual CTLA-4/PD-1-targeting immunotherapy) was 7 out of 9.
In the case of O=C(O)C[C@]1(O)C[C@H](CCCCCCc2ccc(Cl)cc2Cl)OC1=O [SB2049901, (3R,5S)-re1-5-[6-(2,4-Dichlorophenyl)hexyl]tetrahydro-3-hydroxy-2-oxo-3-furanacetic acid], the “Efficacy of anticancer chemotherapy” value [4] is given as “able to improve the efficacy”.
In the case of CC1=NN(c2ccc(C(=O)O)cc2)C(=O)/C1=C\c1ccc(-c2cc(C)c(C)cc2[N+](=O)[O-])o1 [C646], the “Efficacy of anticancer chemotherapy” value [4] is listed as “able to improve the efficacy”.
